Where “and” joins values, the source holds several entries; their conditions need not be identical. Equal values may be shown once.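 Assay format: 96-well plates, 48-hour exposure. Abbreviation: GI50, concentration required for 50% inhibition of growth. TGI is the concentration that stops growth completely.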 Calls of active or inactive are those of the source. Cut-off read from the data, not from the text of the source: active = GI50 below about 0.43 µM; inactive = the rest.
Legend:
Assay in all cases: DTP human tumour cell line panel, 48 h
A549 NSCLC = tested on: A549 NSCLC
ACHN renal = tested on: ACHN renal
LXFL 529 NSCLC = tested on: LXFL 529 NSCLC
NCI-H460 lung = tested on: NCI-H460 lung
SF-539 CNS = tested on: SF-539 CNS
SN12C renal = tested on: SN12C renal
DU-145 prostate = tested on: DU-145 prostate
MDA-MB-435 = tested on: MDA-MB-435
T-47D breast = tested on: T-47D breast

Compound | TGI (A549 NSCLC) | TGI (ACHN renal) | TGI (LXFL 529 NSCLC) | TGI (NCI-H460 lung) | TGI (SF-539 CNS) | TGI (SN12C renal) | GI50 (A549 NSCLC) | GI50 (ACHN renal) | outcome (LXFL 529 NSCLC) | GI50 (NCI-H460 lung) | GI50 (SF-539 CNS) | GI50 (SN12C renal) | TGI (DU-145 prostate) | TGI (MDA-MB-435) | TGI (T-47D breast) | GI50 (DU-145 prostate) | GI50 (LXFL 529 NSCLC) | GI50 (MDA-MB-435) | GI50 (T-47D breast)
N#CC1CC2(CCN1C(=O)c1ccccc1)OCCO2 (centres undefined) | > 100 µM | > 100 µM | > 100 µM | > 100 µM | > 100 µM | > 100 µM |  |  |  |  |  |  |  |  |  |  |  |  | 
COC(C)(C)C/C=C/C(C)=C/C=C/C(C)=C\C=C\C(C)=C\C=C\C=C(C)\C=C\C=C(C)\C=C\C=C(C)\C=C\CC(C)(C)OC | > 150 mg/L | > 150 mg/L |  | > 150 mg/L | > 150 mg/L | > 150 mg/L | > 150 mg/L | > 150 mg/L | inactive | > 150 mg/L | > 150 mg/L | > 150 mg/L |  |  |  |  |  |  | 
CC(C)OP(=O)(NC(=S)c1ccccc1)OC(C)C | > 100 µM | > 100 µM | > 100 µM | > 100 µM | > 100 µM | > 100 µM |  |  |  |  |  |  |  |  |  |  |  |  | 
NC(N)=NS(=O)(=O)c1ccc(NCCc2c3ccccc3nc3ccccc23)cc1 | > 100 µM | > 100 µM | > 100 µM | > 100 µM | > 100 µM | > 100 µM |  |  |  |  |  |  |  |  |  |  |  |  | 
C=C(c1ccccc1)[C@@]1(O)CC[C@@H]1N(CC#N)Cc1ccccc1 | > 73.5 µM | 41.4 µM | 29.5 µM | > 100 µM | 63.1 µM | 46.8 µM |  |  |  |  |  |  | > 100 µM | 47.5 µM | 38.2 µM |  |  |  | 
S=P(N1CC1)(N1CC1)N1CC1 |  | 37.3 µM and 335 µM | 40 µM and 314 µM | 31.7 µM and 195 µM | 49 µM and 223 µM and 182 µM |  | 10.2 µM and 84 µM | 3.39 µM |  | 0.588 µM | 11.4 µM and 23.3 µM |  | 520 µM and 97.8 µM | 403 µM and 509 µM | 950 µM and 913 µM | 11.9 µM | 21.9 µM | 276 µM | 45.5 µM
Cc1cc(C)c(-n2c(-c3ccc(Br)cc3)cs/c2=N\N=C2C=C(C(C)(C)C)C(=O)C(C(C)(C)C)=C2)c(C)c1 | > 100 µM | > 100 µM | > 100 µM | > 100 µM | > 100 µM | > 100 µM |  |  |  |  |  |  | > 100 µM | > 100 µM | > 100 µM |  |  |  | 
Cc1cc(Cl)ccc1NC(=O)CC1SC(=Nc2ccccc2Cl)NC1=O (centres undefined) | > 100 µM | > 100 µM | > 100 µM | > 100 µM | 55.3 µM | > 100 µM |  |  |  |  |  |  |  |  |  |  |  |  | 
CC(C)CC(NC(=O)OC(C)(C)C)C(=O)Nc1ccc(Nc2nc(F)nc(-c3c4ccccc4cn3C)n2)cc1 (centres undefined) | > 100 µM | > 100 µM | > 100 µM | > 100 µM | > 100 µM | > 100 µM |  |  |  |  |  |  | 39.7 µM | > 100 µM | > 100 µM |  |  |  | 
O=C1C(=Cc2c(O)cc(O)cc2O)C(=O)c2ccccc21 | > 100 µM | > 57.6 µM | > 57.5 µM | > 67.7 µM | > 58.5 µM | 37.6 µM |  |  |  |  |  |  | 38.5 µM |  |  |  |  |  | 
CC(C)(c1ccccc1)c1ccc(OC#N)cc1 | > 100 µM | > 100 µM | > 100 µM | > 59.1 µM | > 100 µM | > 100 µM |  |  |  |  |  |  |  |  |  |  |  |  | 
Cn1cc2ccccc2c1-c1nc(F)nc(OCC(=O)[C@H]2CCC3[C@@H]4CCC5=CC(=O)CC[C@]5(C)C4[C@@H](O)C[C@@]32C)n1 (some centres undefined) | > 77.8 µM | 32.6 µM | 9.59 µM | 52.2 µM | 35.1 µM | 30.8 µM |  |  |  |  |  |  |  |  |  |  |  |  | 
CN(C)CC/[N+]([O-])=C(/c1ccccc1)C12CC3CC(CC(C3)C1)C2 | 32.9 µM | 29.8 µM | 39.1 µM | 35.1 µM | 30.8 µM | 31.9 µM |  |  |  |  |  |  |  |  |  |  |  |  | 
O=C(O)CCc1nn2c(nc1=O)sc1ccc3ccccc3c12 | > 100 µM | > 100 µM | > 100 µM | > 100 µM | > 100 µM | > 100 µM |  |  |  |  |  |  |  |  |  |  |  |  | 
CC(=O)C1=C(O)CC2CC3c4[nH]c5ccccc5c4CCN3CC2C1 (centres undefined) | > 100 µM | > 100 µM | > 100 µM | > 100 µM | > 100 µM | > 100 µM |  |  |  |  |  |  |  |  |  |  |  |  | 
Cc1cccc(C)c1NC(=O)C(=O)Nn1c(NN)nc2ccccc2c1=O | > 100 µM | > 100 µM | > 100 µM | > 100 µM | > 100 µM | > 100 µM |  |  |  |  |  |  |  |  |  |  |  |  | 
N#CC1(C#N)C(C#N)(C#N)C12CCCCCC2 | 21.4 µM | 23.2 µM | 29.8 µM | > 66.5 µM | 18 µM | 33.7 µM |  |  |  |  |  |  |  |  |  |  |  |  | 
COc1ccc(C2ON(c3cccc(C)n3)CC=C2C)cc1 (centres undefined) | > 100 µM | > 100 µM | > 100 µM | > 100 µM | > 100 µM | > 100 µM |  |  |  |  |  |  |  |  |  |  |  |  | 
Cc1cccc(NC(=O)c2cccc([N+](=O)[O-])c2O)c1C | > 100 µM | > 100 µM | > 100 µM | > 69.6 µM | 96.9 µM | > 100 µM |  |  |  |  |  |  | > 100 µM | > 100 µM | > 100 µM |  |  |  | 
NC(N)=NS(=O)(=O)c1ccc(Nc2c3ccccc3nc3c(C(=O)Nc4ccc(S(N)(=O)=O)cc4)cccc23)cc1 | > 100 µM | > 100 µM | 78.5 µM | > 100 µM | > 100 µM | > 100 µM |  |  |  |  |  |  |  |  |  |  |  |  | 
C=CCC1C(=O)CC2(C)CC(=O)C(CC=C)C12C (centres undefined) | > 100 µM | > 100 µM | > 100 µM | > 100 µM | > 100 µM | > 100 µM |  |  |  |  |  |  |  |  |  |  |  |  | 
O=c1c2cc(Cl)ccc2sc2cccc(Cl)c12 | > 100 µM | > 100 µM | > 100 µM | > 100 µM | > 100 µM | > 100 µM |  |  |  |  |  |  |  |  |  |  |  |  | 
COc1cccc(NC(=O)/C(Cc2nc3ccccc3nc2C)=N/NC(=O)C[n+]2ccccc2)c1 | > 100 µM | > 100 µM | > 100 µM | > 100 µM | > 100 µM | > 100 µM |  |  |  |  |  |  |  |  |  |  |  |  | 
O=C(NC12CC3CC(CC(C3)C1)C2)C(=O)c1c[nH]c2ccccc12 | 30.2 µM | 28.8 µM | 26.5 µM | 25.7 µM | 26.7 µM | 30.4 µM |  |  |  |  |  |  |  |  |  |  |  |  | 
COC(=O)Nc1nc2ccc(Br)cc2[nH]1 | > 100 µM | > 100 µM | > 100 µM | > 100 µM | 57.3 µM | > 100 µM |  |  |  |  |  |  |  |  |  |  |  |  | 
CC1OC(n2cc(F)c(=O)[nH]c2=O)C=CC1=O (centres undefined) | > 100 µM | 31.9 µM | 31.2 µM | 56.8 µM | 31 µM | 31.8 µM |  |  |  |  |  |  |  |  |  |  |  |  | 
CN(C)c1ccc(/C=c2\sc3nc4ccccc4n3c2=O)cc1 | > 100 µM | > 100 µM | > 100 µM | > 100 µM | > 100 µM | > 100 µM |  |  |  |  |  |  |  |  |  |  |  |  | 

Source: PubChem BioAssay (NCI)
